Test results published in the OligoGym collection.
Several values for one entry are separate records, joined by “and”; a condition that tells them apart may be missing. Equal entries are not always repeated. HELM strings list units from the 5' end as sugar, base in round brackets, then linkage (d deoxyribose, r ribose, m 2'-O-methyl, p phosphodiester). Methylation of C is not given here. [moe] = 2'-O-(2-methoxyethyl) (MOE); [cEt] = constrained ethyl (cEt); [sp] = phosphorothioate linkage

Target: HBV
Details: ASO

Work on “RNA1{[moe](C)[sp].[cEt](A)[sp].d(C)[sp].d(T)[sp].d(G)[sp].d(A)[sp].d(A)[sp].d(C)[sp].d(A)[sp].d(A)[sp].d(A)[sp].d(T)[sp].[cEt](G)[sp].[moe](G)[sp].[cEt](C)[sp].[moe](A)}$$$$V2.0” yielded a target mRNA inhibition (HepG2, 0.0092593 µM) of 5%, a target mRNA inhibition (HepG2, 0.0277778 µM) of 26% and a target mRNA inhibition (HepG2, 0.0833333 µM) of 64%. For the same substance, the target mRNA inhibition (HepG2, 0.25 µM) was 82%.
“RNA1{[moe](C)[sp].[cEt](C)[sp].[cEt](A)[sp].d(C)[sp].d(G)[sp].d(A)[sp].d(G)[sp].d(T)[sp].d(C)[sp].d(T)[sp].d(A)[sp].d(G)[sp].d(A)[sp].[cEt](C)[sp].[cEt](T)[sp].[moe](C)}$$$$V2.0” was tested, and the target mRNA inhibition (HepG2, 0.07 µM) was 0%.
“RNA1{[moe](A)[sp].[cEt](G)[sp].d(A)[sp].d(T)[sp].d(G)[sp].d(A)[sp].d(G)[sp].d(G)[sp].d(C)[sp].d(A)[sp].d(T)[sp].d(A)[sp].[cEt](G)[sp].[moe](C)[sp].[cEt](A)[sp].[moe](G)}$$$$V2.0” was tested, and the target mRNA inhibition (HepG2, 0.07 µM) was 72% and 60%.
In the case of “RNA1{[moe](T)[sp].[moe](T)[sp].[moe](C)[sp].[moe](C)[sp].[moe](G)[sp].[moe](C)[sp].d(A)[sp].d(G)[sp].d(T)[sp].d(A)[sp].d(T)[sp].d(G)[sp].d(G)[sp].d(A)[sp].d(T)[sp].[moe](C)[sp].[moe](G)}$$$$V2.0”, the target mRNA inhibition (HepG2, 0.07 µM) is reported as 45% and 53%.
In the case of “RNA1{d(C)[sp].d(C)[sp].d(A)[sp].d(A)[sp].d(A)[sp].d(G)[sp].d(C)[sp].d(C)[sp].d(A)[sp].d(C)[sp].d(C)[sp].d(C)[sp].d(A)[sp].d(A)[sp].d(G)[sp].d(G)}$$$$V2.0”, the target mRNA inhibition (HepG2, 0.01875 µM) is reported as 4% and 0%, the target mRNA inhibition (HepG2, 0.0375 µM) is reported as 0% and the target mRNA inhibition (HepG2, 0.075 µM) is reported as 0%. For the same substance, the target mRNA inhibition (HepG2, 0.15 µM) was 3% and 0% and the target mRNA inhibition (HepG2, 0.3 µM) was 13%.
“RNA1{[moe](C)[sp].[moe](A)[sp].[moe](C)[sp].[moe](T)[sp].[moe](A)[sp].d(G)[sp].d(T)[sp].d(A)[sp].d(A)[sp].d(A)[sp].d(C)[sp].d(T)[sp].d(G)[sp].d(A)[sp].[moe](G)[sp].[moe](C)}$$$$V2.0” was tested, and the target mRNA inhibition (HepG2, 0.07 µM) was 59% and 60%.
With “RNA1{[moe](A)[sp].[moe](A)[sp].[moe](G)[sp].d(C)[sp].d(G)[sp].d(A)[sp].d(A)[sp].d(G)[sp].d(T)[sp].d(G)[sp].d(C)[sp].d(A)[sp].d(C)[sp].[cEt](A)[sp].[cEt](C)[sp].[cEt](G)}$$$$V2.0” the target mRNA inhibition (HepG2, 0.07 µM) was 70% and 63%.
“RNA1{[moe](A)[sp].[moe](G)[sp].[moe](C)[sp].[moe](G)[sp].d(A)[sp].d(A)[sp].d(G)[sp].d(T)[sp].d(G)[sp].d(C)[sp].d(A)[sp].d(C)[sp].d(A)[sp].[moe](C)[sp].[moe](G)[sp].[moe](G)}$$$$V2.0” was tested, and the target mRNA inhibition (HepG2, 0.0092593 µM) was 25%, the target mRNA inhibition (HepG2, 0.0277778 µM) was 37% and the target mRNA inhibition (HepG2, 0.07 µM) was 78% and 73%. It also gave a target mRNA inhibition (HepG2, 0.0833333 µM) of 73% and a target mRNA inhibition (HepG2, 0.25 µM) of 87%.
In the case of “RNA1{[moe](A)[sp].[moe](A)[sp].d(C)[sp].d(T)[sp].d(G)[sp].d(G)[sp].d(A)[sp].d(G)[sp].d(C)[sp].d(C)[sp].d(A)[sp].[moe](C)[sp].[moe](C)[sp].[moe](A)[sp].[moe](G)[sp].[moe](C)[sp].[moe](A)}$$$$V2.0”, the target mRNA inhibition (HepG2, 0.07 µM) is reported as 68% and 53%.
For “RNA1{[moe](A)[sp].[moe](C)[sp].[moe](C)[sp].d(A)[sp].d(C)[sp].d(T)[sp].d(G)[sp].d(A)[sp].d(A)[sp].d(C)[sp].d(A)[sp].d(A)[sp].d(A)[sp].[cEt](T)[sp].[cEt](G)[sp].[cEt](G)}$$$$V2.0”, the target mRNA inhibition (HepG2, 0.07 µM) was 65% and 71%.
With “RNA1{[moe](G)[sp].[cEt](A)[sp].[cEt](A)[sp].d(C)[sp].d(T)[sp].d(G)[sp].d(G)[sp].d(A)[sp].d(G)[sp].d(C)[sp].d(C)[sp].d(A)[sp].d(C)[sp].[cEt](C)[sp].[cEt](A)[sp].[moe](G)}$$$$V2.0” the target mRNA inhibition (HepG2, 0.07 µM) was 65% and 51%.
“RNA1{[moe](G)[sp].[cEt](T)[sp].d(T)[sp].d(C)[sp].d(C)[sp].d(G)[sp].d(C)[sp].d(A)[sp].d(G)[sp].d(T)[sp].d(A)[sp].d(T)[sp].[cEt](G)[sp].[moe](G)[sp].[cEt](A)[sp].[moe](T)}$$$$V2.0” was tested, and the target mRNA inhibition (HepG2, 0.07 µM) was 76% and 53%.
